≈ marks a conversion by molar mass, not a printed value.
Tests used:
[1] = Kinetic solubility of the compound in JP2 fluid at pH 6.8 by precipitation method; type: physicochemical; details: read-out: Kinetic_solubility
CYP2C9 = CYP2C9 (Homo sapiens, UniProt P11712); assay: Inhibition of CYP2C9 in human liver microsomes using tolbutamide as substrate at 10 uM in presence of NADPH generating system incubated for 10 mins; type: ADME; details: probe tolbutamide
Cav1.2 = Cav1.2 (Homo sapiens, UniProt Q13936); assay: Inhibition of human Cav1.2 expressed in HEK293 cells at 30 uM by automated electrophysiology QPatch HT assay; type: toxicity, cell-based; details: HEK293 cells expressing Cav1.2
[2] = Toxicity in Sprague-Dawley rat assessed as reduction in body weight at 30 to 100 mg/kg, po administered once daily for 3 days; type: organism-based; details: in vivo, 72 h, dose 30-100 mg/kg, time 3 day
[3] = Volume of distribution at steady state in non-fasted ICR mouse at 0.5 mg/kg, iv by LC-MS/MS analysis; type: ADME, organism-based; details: in vivo, read-out: Vdss
[4] = Unbound drug concentration in brain of non-fasted ICR mouse at 30 mg/kg, po measured after 1 hr by LC-MS/MS analysis; type: ADME, organism-based; details: in vivo
CYP1A2 = target: T1, CYP1A2 (Homo sapiens, UniProt P05177); assay: Inhibition of CYP1A2 in human liver microsomes using tacrine as substrate at 10 uM in presence of NADPH generating system incubated for 10 mins; type: ADME; details: probe tacrine
T1 sequence (P05177 whole entry): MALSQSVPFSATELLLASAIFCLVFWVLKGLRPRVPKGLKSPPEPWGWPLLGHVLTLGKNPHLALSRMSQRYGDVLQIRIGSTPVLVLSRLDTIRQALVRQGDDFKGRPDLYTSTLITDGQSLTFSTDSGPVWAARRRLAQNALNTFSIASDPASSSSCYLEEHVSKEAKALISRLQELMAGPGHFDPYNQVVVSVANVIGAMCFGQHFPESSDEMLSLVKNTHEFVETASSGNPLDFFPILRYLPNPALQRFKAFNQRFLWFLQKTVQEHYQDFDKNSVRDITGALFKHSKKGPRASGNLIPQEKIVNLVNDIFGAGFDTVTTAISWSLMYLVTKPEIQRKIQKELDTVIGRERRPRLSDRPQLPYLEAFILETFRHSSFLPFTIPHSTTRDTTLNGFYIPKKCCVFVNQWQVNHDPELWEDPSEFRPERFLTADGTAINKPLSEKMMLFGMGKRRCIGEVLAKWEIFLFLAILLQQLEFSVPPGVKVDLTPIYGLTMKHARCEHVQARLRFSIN

[5] = target: Sodium-dependent serotonin transporter (Homo sapiens, UniProt P31645); assay: Inhibition of human SERT; type: toxicity
[6] = Cardiotoxicity in human iPSC-derived cardiomyocytes assessed as induction of proarrhythmic activity at 30 uM by Fluo-4 dye based fluorescence analysis; type: toxicity; details: cardiac muscle cell
hERG [7] = target: T2, hERG (Homo sapiens, UniProt Q12809); assay: Inhibition of hERG expressed in CHO-K1 cells at 30 uM by automated whole cell patch clamp assay; type: toxicity, cell-based; details: CHO-K1 cells expressing hERG
[8] = Oral bioavailability in non-fasted ICR mouse at 5 mg/kg by LC-MS/MS analysis; type: ADME, organism-based; details: in vivo
[9] = target: Ceramide glucosyltransferase (Homo sapiens, UniProt Q16739); assay: Inhibition of GCS in GBA mutant human fibroblasts assessed as reduction in glucosylceramide level incubated for 4 days by RapdiFire-MS/MS analysis; type: cell-based; details: fibroblast
hERG [10] = target: T2, hERG; assay: Inhibition of hERG expressed in CHO-K1 cells at 10 uM incubated for 5 mins by whole cell-automated voltage clamp analysis; type: toxicity, cell-based; details: CHO-K1 cells expressing hERG
[11] = Toxicity in C57BL/6J mouse assessed as change in body weight at 30 to 100 mg/kg, po; type: organism-based; details: in vivo, dose 30-100 mg/kg
CYP3A4 = CYP3A4 (Homo sapiens, UniProt P08684); assay: Inhibition of CYP3A4 in human liver microsomes using midazolam as substrate at 10 uM in presence of NADPH generating system incubated for 10 mins; type: ADME; details: probe midazolam
[12] = AUC in non-fasted ICR mouse at 5 mg/kg, po by LC-MS/MS analysis; type: ADME, organism-based; design: dose 5 mg/kg; details: in vivo
[13] = Plasma clearance in non-fasted ICR mouse at 0.5 mg/kg, iv by LC-MS/MS analysis; type: ADME, organism-based
CYP2D6 = CYP2D6 (Homo sapiens, UniProt P10635); assay: Inhibition of CYP2D6 in human liver microsomes using dextromethorphan as substrate at 10 uM in presence of NADPH generating system incubated for 10 mins; type: ADME; details: probe dextromethorphan
[14] = Cardiotoxicity in human iPSC-derived cardiomyocytes assessed as minimum effective concentration required for intracellular calcium transients-mediated proarrhythmic activity by Fluo-4 dye based fluorescence analysis; type: toxicity; details: cardiac muscle cell
[15] = 1-Octanol/aqueous buffer partition coefficient, logD of the compound at pH 7.4 by chromatographic method; type: physicochemical
CYP2C8 = target: T3, CYP2C8 (Homo sapiens, UniProt P10632); assay: Inhibition of CYP2C8 in human liver microsomes using paclitaxel as substrate at 10 uM in presence of NADPH generating system incubated for 10 mins; type: ADME; details: probe paclitaxel
T3 sequence (P10632 whole entry): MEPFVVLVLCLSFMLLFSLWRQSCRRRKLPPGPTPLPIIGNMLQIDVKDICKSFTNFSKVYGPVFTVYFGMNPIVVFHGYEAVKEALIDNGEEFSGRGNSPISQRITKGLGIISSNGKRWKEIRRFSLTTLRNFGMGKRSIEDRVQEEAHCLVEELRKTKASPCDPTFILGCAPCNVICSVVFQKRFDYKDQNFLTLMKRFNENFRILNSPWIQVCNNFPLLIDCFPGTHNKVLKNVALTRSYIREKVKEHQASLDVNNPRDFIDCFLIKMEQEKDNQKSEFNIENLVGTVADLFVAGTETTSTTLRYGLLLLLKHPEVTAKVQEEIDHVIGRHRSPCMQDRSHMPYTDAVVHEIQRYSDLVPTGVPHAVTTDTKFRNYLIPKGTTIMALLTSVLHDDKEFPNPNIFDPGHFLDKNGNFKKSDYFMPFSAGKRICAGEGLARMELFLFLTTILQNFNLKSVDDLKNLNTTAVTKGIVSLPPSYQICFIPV

Nav1.5 = Nav1.5 (Homo sapiens, UniProt Q14524); assay: Inhibition of human Nav1.5 at 30 uM by automated whole cell patch clamp assay; type: toxicity
[16] = target: T4, Ceramide glucosyltransferase (Mus musculus, UniProt O88693); assay: Inhibition of mouse GCS using C8-ceramide and UDP-glucose as substrate incubated for 1 hr by RapidFire mass spectrometry
T4 sequence (O88693 whole entry): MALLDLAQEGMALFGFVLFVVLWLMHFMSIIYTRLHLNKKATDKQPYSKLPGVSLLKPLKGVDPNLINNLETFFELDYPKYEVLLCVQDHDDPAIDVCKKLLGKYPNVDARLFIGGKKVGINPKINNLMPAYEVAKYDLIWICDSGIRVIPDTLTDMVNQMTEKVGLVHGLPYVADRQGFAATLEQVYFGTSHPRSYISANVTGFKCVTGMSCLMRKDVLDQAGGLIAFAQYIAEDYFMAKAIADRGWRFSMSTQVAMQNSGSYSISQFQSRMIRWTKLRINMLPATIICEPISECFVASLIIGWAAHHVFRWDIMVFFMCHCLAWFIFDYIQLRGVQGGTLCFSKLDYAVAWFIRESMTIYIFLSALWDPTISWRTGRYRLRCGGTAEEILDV

[17] = Ratio of unbound drug concentration in brain to plasma of non-fasted ICR mouse at 30 mg/kg, po measured after 1 hr by LC-MS/MS analysis; type: ADME, organism-based; details: read-out: K(p,uu,brain)
[18] = Intrinsic clearance in mouse liver microsomes at 1 uM in presence of NADPH generating system assessed per mg protein by LC-MS/MS analysis; type: ADME, Microsome; details: read-out: CLH
[19] = Cmax in non-fasted ICR mouse at 5 mg/kg, po by LC-MS/MS analysis; type: ADME, organism-based; design: route oral, dose 5 mg/kg; details: in vivo
[20] = MRT in non-fasted ICR mouse at 0.5 mg/kg, iv by LC-MS/MS analysis; type: ADME, organism-based; details: in vivo
[21] = MRT in non-fasted ICR mouse at 5 mg/kg, po by LC-MS/MS analysis; type: ADME, organism-based; details: in vivo
[22] = Efflux ratio of apparent permeability from basolateral to apical side over apical to basolateral side in dog MDCK-MDR1 cells at 1 uM measured after 1 hr by LC-MS/MS analysis; type: ADME, cell-based, Canis lupus familiaris

T2 sequence (Q12809 whole entry): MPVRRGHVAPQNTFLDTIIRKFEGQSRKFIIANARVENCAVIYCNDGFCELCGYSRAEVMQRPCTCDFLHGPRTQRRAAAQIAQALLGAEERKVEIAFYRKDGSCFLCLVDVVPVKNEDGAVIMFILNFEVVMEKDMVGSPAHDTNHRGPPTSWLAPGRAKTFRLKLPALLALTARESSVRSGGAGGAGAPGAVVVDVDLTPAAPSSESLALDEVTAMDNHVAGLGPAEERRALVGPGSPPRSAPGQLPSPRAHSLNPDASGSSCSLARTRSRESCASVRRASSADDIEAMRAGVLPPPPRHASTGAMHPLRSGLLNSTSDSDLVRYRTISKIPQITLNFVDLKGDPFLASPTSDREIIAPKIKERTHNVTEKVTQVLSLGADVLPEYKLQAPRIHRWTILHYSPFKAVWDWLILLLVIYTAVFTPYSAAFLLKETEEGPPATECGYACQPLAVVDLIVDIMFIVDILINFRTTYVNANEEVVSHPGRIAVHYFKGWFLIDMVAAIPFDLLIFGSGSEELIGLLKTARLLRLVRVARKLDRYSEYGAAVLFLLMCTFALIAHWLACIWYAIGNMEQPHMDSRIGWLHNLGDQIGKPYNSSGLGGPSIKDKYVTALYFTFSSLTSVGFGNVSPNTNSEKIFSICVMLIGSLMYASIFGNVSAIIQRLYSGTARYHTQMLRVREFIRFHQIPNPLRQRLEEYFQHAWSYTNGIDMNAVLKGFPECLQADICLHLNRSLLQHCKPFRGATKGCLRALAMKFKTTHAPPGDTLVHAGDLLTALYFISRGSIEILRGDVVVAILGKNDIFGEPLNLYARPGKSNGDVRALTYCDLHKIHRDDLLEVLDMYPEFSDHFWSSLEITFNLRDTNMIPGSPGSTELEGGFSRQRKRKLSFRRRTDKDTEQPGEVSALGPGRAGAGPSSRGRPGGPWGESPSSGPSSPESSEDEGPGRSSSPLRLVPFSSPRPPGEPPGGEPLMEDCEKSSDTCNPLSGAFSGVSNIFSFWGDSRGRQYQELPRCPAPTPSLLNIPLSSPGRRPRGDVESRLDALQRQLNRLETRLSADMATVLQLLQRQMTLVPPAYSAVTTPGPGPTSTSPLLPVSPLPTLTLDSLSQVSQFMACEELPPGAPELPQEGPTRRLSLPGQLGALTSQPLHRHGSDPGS
Sequence of CYP2C9 (P11712 whole entry): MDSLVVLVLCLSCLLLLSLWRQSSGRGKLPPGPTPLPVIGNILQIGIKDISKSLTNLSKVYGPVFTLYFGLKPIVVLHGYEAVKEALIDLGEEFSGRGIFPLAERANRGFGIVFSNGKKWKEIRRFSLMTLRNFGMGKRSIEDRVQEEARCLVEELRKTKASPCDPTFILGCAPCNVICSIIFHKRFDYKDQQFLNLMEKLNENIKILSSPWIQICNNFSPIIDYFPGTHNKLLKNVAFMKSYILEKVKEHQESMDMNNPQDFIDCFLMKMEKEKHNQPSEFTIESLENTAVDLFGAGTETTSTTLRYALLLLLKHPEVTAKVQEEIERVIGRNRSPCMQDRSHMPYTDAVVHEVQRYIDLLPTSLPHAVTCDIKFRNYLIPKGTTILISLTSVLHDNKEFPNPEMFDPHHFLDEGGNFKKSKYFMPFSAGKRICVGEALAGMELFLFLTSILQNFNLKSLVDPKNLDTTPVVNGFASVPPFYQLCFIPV
Sequence of CYP3A4 (P08684 whole entry): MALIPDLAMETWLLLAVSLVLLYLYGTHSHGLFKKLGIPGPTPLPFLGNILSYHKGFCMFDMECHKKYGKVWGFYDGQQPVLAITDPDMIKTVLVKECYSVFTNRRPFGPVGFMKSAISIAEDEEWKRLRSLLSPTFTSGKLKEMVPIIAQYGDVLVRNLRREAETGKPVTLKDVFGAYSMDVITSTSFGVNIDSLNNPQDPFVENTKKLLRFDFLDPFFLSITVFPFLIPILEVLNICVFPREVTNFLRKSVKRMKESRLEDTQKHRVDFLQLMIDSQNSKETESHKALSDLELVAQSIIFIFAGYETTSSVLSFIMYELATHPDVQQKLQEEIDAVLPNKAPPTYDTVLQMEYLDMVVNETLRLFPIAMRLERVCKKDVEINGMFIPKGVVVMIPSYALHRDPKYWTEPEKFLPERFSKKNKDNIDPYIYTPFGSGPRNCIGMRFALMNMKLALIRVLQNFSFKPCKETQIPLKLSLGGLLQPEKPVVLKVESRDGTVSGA
Sequence of Nav1.5 (Q14524 whole entry): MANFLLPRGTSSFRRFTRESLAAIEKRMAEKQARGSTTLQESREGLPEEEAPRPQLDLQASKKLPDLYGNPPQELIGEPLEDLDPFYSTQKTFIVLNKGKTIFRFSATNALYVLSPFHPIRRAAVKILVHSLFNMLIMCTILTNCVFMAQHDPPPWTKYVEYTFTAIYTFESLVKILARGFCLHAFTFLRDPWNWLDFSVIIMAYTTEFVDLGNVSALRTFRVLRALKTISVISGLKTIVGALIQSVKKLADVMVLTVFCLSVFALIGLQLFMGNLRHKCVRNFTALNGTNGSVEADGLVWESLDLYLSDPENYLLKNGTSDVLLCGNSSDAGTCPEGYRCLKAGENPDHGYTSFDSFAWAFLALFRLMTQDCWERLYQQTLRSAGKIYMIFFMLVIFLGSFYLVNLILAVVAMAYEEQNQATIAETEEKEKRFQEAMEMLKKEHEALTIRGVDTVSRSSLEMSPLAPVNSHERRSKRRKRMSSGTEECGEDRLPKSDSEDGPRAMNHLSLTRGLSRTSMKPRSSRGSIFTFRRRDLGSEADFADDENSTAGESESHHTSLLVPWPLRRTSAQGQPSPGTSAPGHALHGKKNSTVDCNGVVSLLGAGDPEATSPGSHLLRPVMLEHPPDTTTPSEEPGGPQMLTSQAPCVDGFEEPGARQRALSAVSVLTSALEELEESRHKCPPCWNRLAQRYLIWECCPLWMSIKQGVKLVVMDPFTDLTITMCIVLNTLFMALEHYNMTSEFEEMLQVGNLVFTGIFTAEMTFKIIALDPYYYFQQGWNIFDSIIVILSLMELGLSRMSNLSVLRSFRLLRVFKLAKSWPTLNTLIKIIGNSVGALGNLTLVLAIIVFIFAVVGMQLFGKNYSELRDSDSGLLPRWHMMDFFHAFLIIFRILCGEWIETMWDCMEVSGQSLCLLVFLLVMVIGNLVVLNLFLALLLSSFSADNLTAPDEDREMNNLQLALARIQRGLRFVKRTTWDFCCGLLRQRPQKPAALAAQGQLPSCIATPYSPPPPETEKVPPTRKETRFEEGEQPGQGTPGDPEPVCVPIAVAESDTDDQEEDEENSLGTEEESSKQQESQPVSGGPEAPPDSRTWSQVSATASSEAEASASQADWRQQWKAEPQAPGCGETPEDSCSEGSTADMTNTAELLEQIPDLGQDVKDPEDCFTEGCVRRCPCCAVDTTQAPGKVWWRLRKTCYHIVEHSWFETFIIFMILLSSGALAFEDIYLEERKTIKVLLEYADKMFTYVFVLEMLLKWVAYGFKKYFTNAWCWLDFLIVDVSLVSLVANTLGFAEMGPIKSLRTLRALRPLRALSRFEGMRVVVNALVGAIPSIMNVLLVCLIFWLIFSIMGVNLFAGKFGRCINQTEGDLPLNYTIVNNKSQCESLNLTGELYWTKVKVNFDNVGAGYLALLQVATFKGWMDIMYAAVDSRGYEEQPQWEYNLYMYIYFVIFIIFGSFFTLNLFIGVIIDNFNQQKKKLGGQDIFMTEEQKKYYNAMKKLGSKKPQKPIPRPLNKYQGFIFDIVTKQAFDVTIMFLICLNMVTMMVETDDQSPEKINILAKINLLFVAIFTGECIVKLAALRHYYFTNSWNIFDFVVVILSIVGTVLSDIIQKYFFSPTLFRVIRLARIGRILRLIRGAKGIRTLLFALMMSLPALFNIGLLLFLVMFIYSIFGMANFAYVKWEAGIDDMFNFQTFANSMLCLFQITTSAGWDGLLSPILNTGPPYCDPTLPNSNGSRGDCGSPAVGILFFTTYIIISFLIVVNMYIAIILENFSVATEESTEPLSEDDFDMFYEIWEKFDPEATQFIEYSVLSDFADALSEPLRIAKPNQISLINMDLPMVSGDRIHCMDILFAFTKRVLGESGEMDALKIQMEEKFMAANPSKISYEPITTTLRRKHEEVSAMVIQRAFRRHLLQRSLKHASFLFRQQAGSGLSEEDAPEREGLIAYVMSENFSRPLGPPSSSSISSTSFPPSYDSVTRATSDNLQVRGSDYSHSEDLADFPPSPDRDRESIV
Sequence of Ceramide glucosyltransferase (Homo sapiens, UniProt Q16739) (Q16739 whole entry, looked up, stated change not applied): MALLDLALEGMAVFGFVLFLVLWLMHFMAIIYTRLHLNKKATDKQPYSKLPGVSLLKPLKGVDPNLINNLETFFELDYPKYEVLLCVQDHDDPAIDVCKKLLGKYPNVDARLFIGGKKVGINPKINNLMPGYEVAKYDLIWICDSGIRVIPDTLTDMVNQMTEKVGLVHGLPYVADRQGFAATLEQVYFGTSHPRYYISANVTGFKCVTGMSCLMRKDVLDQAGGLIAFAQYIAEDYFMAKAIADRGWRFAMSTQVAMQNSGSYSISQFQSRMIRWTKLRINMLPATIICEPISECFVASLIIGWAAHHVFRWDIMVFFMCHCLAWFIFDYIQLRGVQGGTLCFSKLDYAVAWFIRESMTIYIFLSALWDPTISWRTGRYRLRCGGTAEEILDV
Sequence of CYP2D6 (P10635 whole entry): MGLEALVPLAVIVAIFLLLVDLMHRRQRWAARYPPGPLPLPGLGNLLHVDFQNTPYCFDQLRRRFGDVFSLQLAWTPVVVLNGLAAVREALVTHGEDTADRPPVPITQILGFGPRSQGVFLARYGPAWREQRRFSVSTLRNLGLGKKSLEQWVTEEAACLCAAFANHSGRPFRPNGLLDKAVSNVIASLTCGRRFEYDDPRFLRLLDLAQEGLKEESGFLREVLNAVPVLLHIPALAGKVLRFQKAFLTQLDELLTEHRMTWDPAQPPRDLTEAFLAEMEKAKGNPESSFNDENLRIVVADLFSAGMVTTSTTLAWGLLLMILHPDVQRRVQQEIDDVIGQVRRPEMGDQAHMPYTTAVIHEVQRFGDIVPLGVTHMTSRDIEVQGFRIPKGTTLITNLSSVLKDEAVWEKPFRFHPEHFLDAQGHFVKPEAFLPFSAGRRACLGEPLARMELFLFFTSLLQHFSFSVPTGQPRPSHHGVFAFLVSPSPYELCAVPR

Compound: CC(C)(O)c1ccc(N2Cc3c(ccnc3-c3ccc(F)cc3OCC(F)(F)F)C2=O)cc1
- solubility kinetic [1]: 5.2 µg/mL (≈ 11.3 µM)
- inhibition at 10 min, 10 µM (CYP2C9): 37.9%
- inhibition at 30 µM (Cav1.2): 2.4%
- Activity [2]: Toxic
- Vd [3]: 1.08 L/kg
- Drug uptake(free) [4]: 0.24 µM
- inhibition at 10 min, 10 µM (CYP1A2): 5.8%
- IC50 [5]: 0.31 µM
- Activity [6]: Non-Toxic
- inhibition at 30 µM (hERG [7]): 42%
- bioavailability [8]: 67%
- EC50 [9]: 0.0076 µM
- inhibition at 5 min, 10 µM (hERG [10]): 13.8%
- Activity [11]: Non-Toxic
- inhibition at 10 min, 10 µM (CYP3A4): 15.5%
- AUC [12]: 10.7 µg·h/mL
- clearance [13]: 0.314 L/h/kg
- inhibition at 10 min, 10 µM (CYP2D6): 10.9%
- MEC [14]: > 30 µM
- chromatographic logD [15]: 2.48
- inhibition at 10 min, 10 µM (CYP2C8): 22.4%
- inhibition at 30 µM (Nav1.5): 7.1%
- IC50 [16]: 0.051 µM
- Kp uu at 1 h [17]: 0.11
- microsomal CLint at 1 µM [18]: 6 µL/min/mg
- Cmax [19]: 1.18 µg/mL
- MRT [20]: 3.44 h
- MRT [21]: 7.14 h
- efflux ratio at 1 h, 1 µM [22]: 9.6

Source: ChEMBL document CHEMBL5046282, “Discovery of Brain-Penetrant Glucosylceramide Synthase Inhibitors with a Novel Pharmacophore” (J Med Chem, 2022)
